Test results published in US20080096967A1, “Formulations for Injection of Catecholic Butanes, Including Ndga Compounds, Into Animals” (priority 2005, published 2008).

Legend:
[1] = Solubility of M4N in water-insoluble lipids (visual inspection); assay type: physicochemical; conditions: for Dissolution After Heating: 40° C.; for solutions stable: corn oil; for stable at room temperature: sesame oil
[2] = M4N stability in HP-β-CD/PEG 300 buffer solutions at 60° C. (RP-HPLC, pH); assay type: physicochemical; conditions: for M4N concentration (stability): 25% PEG300
Experimental: The stability of 10 mg/mL M4N (prepared in a ratio of 75:25 40% HP-β-CD: 40 mg/mL M4N PEG 300) in 15 mM buffer solutions was evaluated following incubation at 60° C.
2.0 g HP-β-CD was weighed into 5 mL volumetric flasks on an OHAUS Analytical Plus Balance. 1 mL of a 100 mM buffer solution was added to each flask. Each sample was q.s. to 5 mL with WFI.
750 μL 40% HP-β-CD buffered solution was placed in 1.5 mL polypropylene microtubes. […] After gentle inversion of the sample tubes, the pH of each solution was measured using a Orion, Model 420A pH meter. An initial aliquot was removed for RP-HPLC analysis. Test samples were then placed in a Precision 60° C. incubator. The M4N stability was evaluated by RP-HPLC. At each time point, the samples were centrifuged for 2 minutes at 13,000 rpm to pellet any solid M4N.

## COc1ccc(C[C@@H](C)[C@@H](C)Cc2ccc(OC)c(OC)c2)cc1OC [Formulation M4N, meso-1,4-bis(3,4-dimethoxyphenyl)-2,3-dimethylbutane]
[1]; Peppermint Oil, M4N 20 mg/mL
  Stability Time at Room Temperature: >3 days
[1]; Peppermint Oil, M4N 40 mg/mL
  Stability Time at Room Temperature: >3 days
  Dissolution After Heating: Y at 40 °C
[1]; Peppermint Oil, M4N 60 mg/mL
  Stability Time at Room Temperature: <3 days
  Dissolution After Heating: Y at 40 °C
[1]; Peppermint Oil, M4N 100 mg/mL
  Stability Time at Room Temperature: <1 days
  Dissolution After Heating: Y at 40 °C
[1]; Peppermint Oil, M4N 125 mg/mL
  Stability Time at Room Temperature: <1 days
  Dissolution After Heating: Y at 40 °C
[1]; Sesame Oil, Tween ® 20 and Glycerol: 10% Oil emulsion in 90% saline, M4N 2.4 mg/mL
  Stability Time at Room Temperature: <1 days
[1]; M4N 60 mg/mL
  solutions stable: less than 1 day
[1]; M4N 1 and 10 mg/mL
  solutions stable: greater than 3 days
[1]; M4N 20, 40 and 50 mg/mL
  solutions stable: less than 3 days
[1]; olive oil, M4N 30 mg/mL, soluble at 60° C.
  solution after cooling: did not remain in solution after cooling
[1]; M4N 10 mg/mL and 20 mg/mL
  stable at room temperature: more than 3 days
[1]; M4N 30 mg/mL
  stable at room temperature: less than 3 days
[2]; 10 mg/mL M4N in HP-β-CD/PEG 300, 15 mM buffers, 14 day incubation at 60° C.
  change in concentration of M4N solutions: slight decrease
[2]; 15 mM Acetate, pH 5, 30% HP-β-CD, 0 days at 60° C.
  M4N concentration (stability): 10.6 mg/mL
[2]; 15 mM Acetate, pH 5, 30% HP-β-CD, 2 days at 60° C.
  M4N concentration (stability): 10.2 mg/mL
[2]; 15 mM Acetate, pH 5, 30% HP-β-CD, 6 days at 60° C.
  M4N concentration (stability): 9.6 mg/mL
[2]; 15 mM Acetate, pH 5, 30% HP-β-CD, 10 days at 60° C.
  M4N concentration (stability): 9.7 mg/mL
[2]; 15 mM Acetate, pH 5, 30% HP-β-CD, 14 days at 60° C.
  M4N concentration (stability): 9.6 mg/mL
[2]; 15 mM Acetate, pH 6, 30% HP-β-CD, 0 days at 60° C.
  M4N concentration (stability): 10.5 mg/mL
[2]; 15 mM Acetate, pH 6, 30% HP-β-CD, 2 days at 60° C.
  M4N concentration (stability): 10.1 mg/mL
[2]; 15 mM Acetate, pH 6, 30% HP-β-CD, 6 days at 60° C.
  M4N concentration (stability): 9.7 mg/mL
[2]; 15 mM Acetate, pH 6, 30% HP-β-CD, 10 days at 60° C.
  M4N concentration (stability): 9.7 mg/mL
[2]; 15 mM Acetate, pH 6, 30% HP-β-CD, 14 days at 60° C.
  M4N concentration (stability): 9.6 mg/mL
[2]; 15 mM Borate, pH 10, 30% HP-β-CD, 0 days at 60° C.
  M4N concentration (stability): 10.5 mg/mL
[2]; 15 mM Borate, pH 10, 30% HP-β-CD, 2 days at 60° C.
  M4N concentration (stability): 10.1 mg/mL
[2]; 15 mM Borate, pH 10, 30% HP-β-CD, 6 days at 60° C.
  M4N concentration (stability): 9.7 mg/mL
[2]; 15 mM Borate, pH 10, 30% HP-β-CD, 10 days at 60° C.
  M4N concentration (stability): 9.6 mg/mL
[2]; 15 mM Borate, pH 10, 30% HP-β-CD, 14 days at 60° C.
  M4N concentration (stability): 9.6 mg/mL
[2]; 15 mM Borate, pH 11, 30% HP-β-CD, 0 days at 60° C.
  M4N concentration (stability): 10.5 mg/mL
[2]; 15 mM Borate, pH 11, 30% HP-β-CD, 2 days at 60° C.
  M4N concentration (stability): 10.3 mg/mL
[2]; 15 mM Borate, pH 11, 30% HP-β-CD, 6 days at 60° C.
  M4N concentration (stability): 9.8 mg/mL
[2]; 15 mM Borate, pH 11, 30% HP-β-CD, 10 days at 60° C.
  M4N concentration (stability): 9.5 mg/mL
[2]; 15 mM Borate, pH 11, 30% HP-β-CD, 14 days at 60° C.
  M4N concentration (stability): 9.4 mg/mL
[2]; 15 mM Phosphate, pH 3, 30% HP-β-CD, 0 days at 60° C.
  M4N concentration (stability): 10.3 mg/mL
[2]; 15 mM Phosphate, pH 3, 30% HP-β-CD, 2 days at 60° C.
  M4N concentration (stability): 10.1 mg/mL
[2]; 15 mM Phosphate, pH 3, 30% HP-β-CD, 6 days at 60° C.
  M4N concentration (stability): 9.6 mg/mL
[2]; 15 mM Phosphate, pH 3, 30% HP-β-CD, 10 days at 60° C.
  M4N concentration (stability): 9.7 mg/mL
[2]; 15 mM Phosphate, pH 3, 30% HP-β-CD, 14 days at 60° C.
  M4N concentration (stability): 9.6 mg/mL
[2]; 15 mM Phosphate, pH 4, 30% HP-β-CD, 0 days at 60° C.
  M4N concentration (stability): 10.5 mg/mL
[2]; 15 mM Phosphate, pH 4, 30% HP-β-CD, 2 days at 60° C.
  M4N concentration (stability): 10.1 mg/mL
[2]; 15 mM Phosphate, pH 4, 30% HP-β-CD, 6 days at 60° C.
  M4N concentration (stability): 9.6 mg/mL
[2]; 15 mM Phosphate, pH 4, 30% HP-β-CD, 10 days at 60° C.
  M4N concentration (stability): 9.7 mg/mL
[2]; 15 mM Phosphate, pH 4, 30% HP-β-CD, 14 days at 60° C.
  M4N concentration (stability): 9.6 mg/mL
[2]; 15 mM Phosphate, pH 7, 30% HP-β-CD, 0 days at 60° C.
  M4N concentration (stability): 10.5 mg/mL
[2]; 15 mM Phosphate, pH 7, 30% HP-β-CD, 2 days at 60° C.
  M4N concentration (stability): 10.3 mg/mL
[2]; 15 mM Phosphate, pH 7, 30% HP-β-CD, 6 days at 60° C.
  M4N concentration (stability): 9.7 mg/mL
[2]; 15 mM Phosphate, pH 7, 30% HP-β-CD, 10 days at 60° C.
  M4N concentration (stability): 9.7 mg/mL
[2]; 15 mM Phosphate, pH 7, 30% HP-β-CD, 14 days at 60° C.
  M4N concentration (stability): 9.7 mg/mL
[2]; 15 mM Phosphate, pH 8, 30% HP-β-CD, 0 days at 60° C.
  M4N concentration (stability): 10.6 mg/mL
[2]; 15 mM Phosphate, pH 8, 30% HP-β-CD, 2 days at 60° C.
  M4N concentration (stability): 10.4 mg/mL
[2]; 15 mM Phosphate, pH 8, 30% HP-β-CD, 6 days at 60° C.
  M4N concentration (stability): 9.7 mg/mL
[2]; 15 mM Phosphate, pH 8, 30% HP-β-CD, 10 days at 60° C.
  M4N concentration (stability): 9.8 mg/mL
[2]; 15 mM Phosphate, pH 8, 30% HP-β-CD, 14 days at 60° C.
  M4N concentration (stability): 9.6 mg/mL
[2]; 15 mM Phosphate, pH 9, 30% HP-β-CD, 0 days at 60° C.
  M4N concentration (stability): 10.4 mg/mL
[2]; 15 mM Phosphate, pH 9, 30% HP-β-CD, 2 days at 60° C.
  M4N concentration (stability): 10.2 mg/mL
[2]; 15 mM Phosphate, pH 9, 30% HP-β-CD, 6 days at 60° C.
  M4N concentration (stability): 9.7 mg/mL
[2]; 15 mM Phosphate, pH 9, 30% HP-β-CD, 10 days at 60° C.
  M4N concentration (stability): 9.8 mg/mL
[2]; 15 mM Phosphate, pH 9, 30% HP-β-CD, 14 days at 60° C.
  M4N concentration (stability): 9.7 mg/mL
[2]; 14 day incubation at 60° C.
  M4N impurities, share of total peak area: less than 0.1%
[2]; 14 days at 60° C.
  apparent sample pH during the incubation period: Little if any changes
[2]; WFI, 30% HP-β-CD, 0 days at 60° C.
  M4N concentration (stability): 10.4 mg/mL
[2]; WFI, 30% HP-β-CD, 2 days at 60° C.
  M4N concentration (stability): 10.1 mg/mL
[2]; WFI, 30% HP-β-CD, 6 days at 60° C.
  M4N concentration (stability): 9.9 mg/mL
[2]; WFI, 30% HP-β-CD, 10 days at 60° C.
  M4N concentration (stability): 9.7 mg/mL
[2]; WFI, 30% HP-β-CD, 14 days at 60° C.
  M4N concentration (stability): 9.6 mg/mL
